Where “and” joins values, the source holds several entries; their conditions need not be identical. Identical values can stand only once. Toxic doses and inconclusive results are not listed.
System: P388 leukemia ip, CD2F1 mice, survival T/C
Assay: NCI In Vivo Anticancer Drug Screen. Data for tumor model P388 Leukemia (intraperitoneal) in CD2F1 (CDF1) mice
Conditions: endpoint: median survival time, higher = longer survival
Procedure, shortened: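 Mice carrying the transplanted tumor received test compound or vehicle. Survival was recorded in each group, and the value is the treated-group measurement divided by that of the vehicle-treated control group.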

[1] = dose: 6.25 mg/kg/injection, schedule: Q01DX009 (ip), vehicle: saline with Tween-80
[2] = dose: 12.5 mg/kg/injection, schedule: Q01DX009 (ip), vehicle: saline with Tween-80
[3] = dose: 25.0 mg/kg/injection, schedule: Q01DX009 (ip), vehicle: saline with Tween-80
[4] = dose: 50.0 mg/kg/injection, schedule: Q01DX009 (ip), vehicle: saline with Tween-80
[5] = dose: 60.0 mg/kg/injection, schedule: Q01DX005 (ip), vehicle: saline with Tween-80
[6] = dose: 120.0 mg/kg/injection, schedule: Q01DX005 (ip), vehicle: saline with Tween-80
[7] = dose: 240.0 mg/kg/injection, schedule: Q01DX005 (ip), vehicle: saline with Tween-80
[8] = dose: 15.0 mg/kg/injection, schedule: Q01DX005 (ip), vehicle: Klucel (hydroxypropylcellulose) (HPC)
[9] = dose: 30.0 mg/kg/injection, schedule: Q01DX005 (ip), vehicle: Klucel (hydroxypropylcellulose) (HPC)
[10] = dose: 100.0 mg/kg/injection, schedule: Q01DX009 (ip), vehicle: saline with Tween-80
[11] = dose: 200.0 mg/kg/injection, schedule: Q01DX009 (ip), vehicle: saline with Tween-80
[12] = dose: 100.0 mg/kg/injection, schedule: Q01DX009 (ip), vehicle: Klucel (hydroxypropylcellulose) (HPC)
[13] = dose: 200.0 mg/kg/injection, schedule: Q01DX009 (ip), vehicle: Klucel (hydroxypropylcellulose) (HPC)

For O=C1CCC(C(=O)O)N1 (stereo not drawn), the T/C (dose: 100.0 mg/kg/injection, schedule: Q04DX003 (ip), vehicle: saline) was 95 % of control, the T/C (dose: 200.0 mg/kg/injection, schedule: Q04DX003 (ip), vehicle: saline) was 97 % of control and the T/C (dose: 400.0 mg/kg/injection, schedule: Q04DX003 (ip), vehicle: saline) was 94 % of control.
CSc1nc2ccccc2[nH]1 was tested, and the T/C [1] was 101 % of control, the T/C [2] was 106 % of control and the T/C [3] was 106 % of control. The T/C [4] was 110 % of control.
O=C(NCCc1ccccn1)c1cc(Cl)ccc1O was tested, and the T/C (dose: 100.0 mg/kg/injection, schedule: Q04DX002 (ip), vehicle: Klucel (hydroxypropylcellulose) (HPC)) was 95 % of control, the T/C (dose: 200.0 mg/kg/injection, schedule: Q04DX002 (ip), vehicle: Klucel (hydroxypropylcellulose) (HPC)) was 103 % of control and the T/C (dose: 400.0 mg/kg/injection, schedule: Q04DX002 (ip), vehicle: Klucel (hydroxypropylcellulose) (HPC)) was 100 % of control.
With C=C1C(=O)O[C@@H]2[C@H](O)[C@@H](C)[C@@H]3C=CC(=O)[C@@]3(C)[C@H](OC(=O)C=C(C)C)[C@H]12 the T/C (dose: 1.56 mg/kg/injection, schedule: Q01DX009 (ip), vehicle: saline with Tween-80) was 121 % of control, the T/C (dose: 3.12 mg/kg/injection, schedule: Q01DX009 (ip), vehicle: saline with Tween-80) was 120 % of control and the T/C (dose: 3.12 mg/kg/injection, schedule: Q01DX009 (ip), vehicle: saline) was 151 % of control. The T/C [1] was 117 % of control and 121 % of control, the T/C [2] was 107 % of control and 121 % of control and the T/C (dose: 12.5 mg/kg/injection, schedule: Q01DX009 (ip), vehicle: saline) was 150 % of control.
With COC(=O)c1nc2nnc(NC(=O)Nc3ccc(Cl)cc3)n2c(-c2ccc(Cl)cc2)c1C the T/C [5] was 99 % of control, the T/C [6] was 99 % of control and the T/C [7] was 100 % of control.
With O=C(O)c1cc(=O)c2c(OCC(O)COc3cccc4oc(C(=O)O)cc(=O)c34)cccc2o1.[Cu+2] the T/C (dose: 12.5 mg/kg/injection, schedule: Q04DX002 (ip), vehicle: Klucel (hydroxypropylcellulose) (HPC)) was 99 % of control, the T/C (dose: 25.0 mg/kg/injection, schedule: Q04DX002 (ip), vehicle: Klucel (hydroxypropylcellulose) (HPC)) was 96 % of control and the T/C (dose: 50.0 mg/kg/injection, schedule: Q04DX002 (ip), vehicle: Klucel (hydroxypropylcellulose) (HPC)) was 95 % of control.
With COc1cc(OC(C)C)cc2c1C(=O)C(C(O)(O)C(F)(F)F)=CC2=O the T/C [8] was 109 % of control, the T/C [9] was 103 % of control and the T/C (dose: 60.0 mg/kg/injection, schedule: Q01DX005 (ip), vehicle: Klucel (hydroxypropylcellulose) (HPC)) was 99 % of control.
Nc1ccc(CCCCc2ccc(Cl)c(S(=O)(=O)F)c2)c(Cl)c1 was tested, and the T/C [10] was 91 % of control and the T/C [11] was 91 % of control.
With N#CC(C#N)=CN1CCCCCC1 the T/C (dose: 6.25 mg/kg/injection, schedule: Q04DX003 (ip), vehicle: saline with Tween-80) was 104 % of control and the T/C (dose: 12.5 mg/kg/injection, schedule: Q04DX003 (ip), vehicle: saline with Tween-80) was 100 % of control.
In the case of CN1C(=O)Nc2ccc(Cl)cc2C1(O)c1ccccc1 (stereo not drawn), the T/C [3] is reported as 90 % of control, the T/C [4] is reported as 86 % of control and the T/C [10] is reported as 92 % of control. The T/C [11] was 91 % of control.
In the case of O=C1NC2CCC1CC2, the T/C (dose: 50.0 mg/kg/injection, schedule: Q01DX005 (ip), vehicle: suspension in saline) is reported as 101 % of control, the T/C (dose: 100.0 mg/kg/injection, schedule: Q01DX005 (ip), vehicle: suspension in saline) is reported as 97 % of control and the T/C (dose: 200.0 mg/kg/injection, schedule: Q01DX005 (ip), vehicle: suspension in saline) is reported as 102 % of control.
For Cc1cc(C2(c3cc(C)c(O)c(CN(CC(=O)O)CC(=O)O)c3)OC(=O)c3ccccc32)cc(CN(CC(=O)O)CC(=O)O)c1O, the T/C [4] was 100 % of control, the T/C [10] was 100 % of control and the T/C [11] was 97 % of control.
For CC(C)(CCC(=O)O)C(=O)O, the T/C (dose: 50.0 mg/kg/injection, schedule: Q01DX009 (ip), vehicle: saline sonified) was 91 % of control and the T/C (dose: 200.0 mg/kg/injection, schedule: Q01DX009 (ip), vehicle: saline sonified) was 87 % of control.
In the case of NC(N)=NCCCC(N=C1C=CC(=NC(CCCN=C(N)N)C(=O)O)C=C1)C(=O)O (stereo not drawn), the T/C (dose: 50.0 mg/kg/injection, schedule: Q04DX002 (ip), vehicle: distilled water + alcohol) is reported as 99 % of control, the T/C (dose: 100.0 mg/kg/injection, schedule: Q04DX002 (ip), vehicle: distilled water + alcohol) is reported as 101 % of control and the T/C (dose: 200.0 mg/kg/injection, schedule: Q04DX002 (ip), vehicle: distilled water + alcohol) is reported as 104 % of control. The T/C (dose: 400.0 mg/kg/injection, schedule: Q04DX002 (ip), vehicle: distilled water + alcohol) was 107 % of control and the T/C (dose: 600.0 mg/kg/injection, schedule: Q04DX002 (ip), vehicle: distilled water + alcohol) was 108 % of control.
For O=c1oc(-c2cccc(I)c2)ns1, the T/C [12] was 111 % of control and the T/C [13] was 114 % of control.
For CC(=O)N1C=CC(C2C=CN(C(C)=O)C=C2)C=C1, the T/C (dose: 10.0 mg/kg/injection, schedule: Q01DX009 (ip), vehicle: saline with Tween-80) was 109 % of control, the T/C (dose: 20.0 mg/kg/injection, schedule: Q01DX009 (ip), vehicle: saline with Tween-80) was 96 % of control and the T/C (dose: 40.0 mg/kg/injection, schedule: Q01DX009 (ip), vehicle: saline with Tween-80) was 100 % of control.
In the case of COc1cccc(C(=O)O)c1OC, the T/C (dose: 100.0 mg/kg/injection, schedule: Q04DX003 (ip), vehicle: saline with Tween-80) is reported as 100 % of control, the T/C (dose: 200.0 mg/kg/injection, schedule: Q04DX003 (ip), vehicle: saline with Tween-80) is reported as 100 % of control and the T/C (dose: 400.0 mg/kg/injection, schedule: Q04DX003 (ip), vehicle: saline with Tween-80) is reported as 90 % of control.
For S=P(N1CCCC1)(N1CC1)N1CC1, the T/C (dose: 2.2 mg/kg/injection, schedule: Q01DX009 (ip), vehicle: saline) was 111 % of control, the T/C (dose: 3.3 mg/kg/injection, schedule: Q01DX009 (ip), vehicle: saline) was 155 % of control and the T/C (dose: 7.5 mg/kg/injection, schedule: Q01DX009 (ip), vehicle: saline) was 177 % of control. For the same compound, the T/C (dose: 11.0 mg/kg/injection, schedule: Q04DX003 (ip), vehicle: saline with Tween-80) was 104 % of control, the T/C (dose: 25.0 mg/kg/injection, schedule: Q04DX003 (ip), vehicle: saline with Tween-80) was 200 % of control and the T/C (dose: 37.5 mg/kg/injection, schedule: Q04DX003 (ip), vehicle: saline with Tween-80) was 90 % of control.
In the case of Cc1cc[n+](C2=C(Nc3cc(C)cc(C)c3)C(=O)c3ccccc3C2=O)cc1, the T/C (dose: 50.0 mg/kg/injection, schedule: Q01DX005 (ip), vehicle: saline with Tween-80) is reported as 111 % of control, the T/C (dose: 100.0 mg/kg/injection, schedule: Q01DX005 (ip), vehicle: saline with Tween-80) is reported as 119 % of control and the T/C (dose: 200.0 mg/kg/injection, schedule: Q01DX005 (ip), vehicle: saline with Tween-80) is reported as 90 % of control.
CCOc1c(N=Nc2ccc(Cl)cc2Cl)c(C)nn1C(N)=S was tested, and the T/C [8] was 95 % of control and the T/C [9] was 90 % of control.
With CNC(=O)Nc1nncs1 the T/C [5] was 106 % of control, the T/C [6] was 104 % of control and the T/C [7] was 106 % of control.
CC(C)C(N)S(=O)(=O)O (stereo not drawn) was tested, and the T/C [4] was 115 % of control, the T/C [10] was 94 % of control and the T/C [11] was 105 % of control.
With Cc1ccc(S(=O)(=O)N/N=C2/C=CC3(CCCCC3)CC2)cc1 the T/C (dose: 50.0 mg/kg/injection, schedule: Q01DX009 (ip), vehicle: Klucel (hydroxypropylcellulose) (HPC)) was 109 % of control, the T/C [12] was 102 % of control and the T/C [13] was 111 % of control.
For COc1nc2c(=O)[nH]cnc2n1C1OC(CO)C(O)C1O (stereo not drawn), the T/C (dose: 60.0 mg/kg/injection, schedule: Q01DX005 (ip), vehicle: saline) was 104 % of control, the T/C (dose: 120.0 mg/kg/injection, schedule: Q01DX005 (ip), vehicle: saline) was 97 % of control and the T/C (dose: 240.0 mg/kg/injection, schedule: Q01DX005 (ip), vehicle: saline) was 98 % of control.
In the case of COC1CC23OC2(C1)C1C=CC3N(C(=O)OCC(Cl)(Cl)Cl)N1C(=O)OCC(Cl)(Cl)Cl (stereo not drawn), the T/C (dose: 50.0 mg/kg/injection, schedule: Q01DX005 (ip), vehicle: Klucel (hydroxypropylcellulose) (HPC)) is reported as 102 % of control, the T/C (dose: 100.0 mg/kg/injection, schedule: Q01DX005 (ip), vehicle: Klucel (hydroxypropylcellulose) (HPC)) is reported as 105 % of control and the T/C (dose: 200.0 mg/kg/injection, schedule: Q01DX005 (ip), vehicle: Klucel (hydroxypropylcellulose) (HPC)) is reported as 102 % of control.
CCCCCCCCCCCCOCC[N+](CCO)(CCO)Cc1ccccc1 was tested, and the T/C (dose: 0.25 mg/kg/injection, schedule: Q01DX009 (ip), vehicle: saline) was 100 % of control, the T/C (dose: 0.5 mg/kg/injection, schedule: Q01DX009 (ip), vehicle: saline) was 100 % of control and the T/C (dose: 1.0 mg/kg/injection, schedule: Q01DX009 (ip), vehicle: saline) was 100 % of control.
